Results published in PMC8762250, “Identification of Novel Chemical Scaffolds that Inhibit the Growth of Mycobacterium tuberculosis in Macrophages” (Frontiers in Pharmacology, 2022).
Read-outs that look alike come from different tables or passages of the source. Marks after values point to notes of the source that are not given here.

Legend:
[1] = test system: M. tuberculosis; assay: High content assay of intracellular M. tuberculosis growth in infected RAW264.7 macrophages; type: cell-based, Mycobacterium tuberculosis H37Rv-LP
Description: Compounds were obtained in 384-well plates as 10 mM DMSO stock solutions and tested as described ([Manning et al., 2017]). Briefly, assay plates were prepared in clear bottom, black 384-well plates with 30 μl cRPMI and 0.6 μl compound in columns 3–22 (final concentration of 10 μM compound, 1% DMSO). […] INH and STA were also included in dose response on each plate. RAW264.7 cells were infected with M. tuberculosis DREAM8 as described ([Manning et al., 2017]) at an MOI of 1 for 24 h and extracellular bacteria removed by washing. Cells were recovered using Accumax, harvested, washed and resuspended in serum-free RPMI; 30 μl of infected cells were dispensed into each well at 3,300 cells/well. Plates were incubated for 72 h, 10 μl of 5X SYBR Green I was added and plates were imaged with an ImageXpress Micro High Content Screening System (Molecular Devices) using a ×4 objective and FITC and Texas Red channels. MetaXpress was used to analyze images. The integrated intensity of M. tuberculosis or macrophages was calculated for each well. Growth inhibition was calculated for each test well by normalizing to the average integrated intensity of the DMSO control wells. IC50 was calculated as the compound concentration required to reduce bacterial growth by 50%. TC50 was calculated as the compound concentration required to reduce macrophage viability by 50%.

[2] = HepG2 cytotoxicity (CellTiter-Glo, 72 h); type: cell-based, human; settings: human
Description: (§1) Cytotoxicity against HepG2 cells was measured after 72 h. Cells were seeded in 384-well plates at 1,800 cells per well. Compounds were added as a 10-point three-fold serial dilution after 24 h (final assay concentration of 1% DMSO). CellTiter-Glo® reagent (Promega) was added and relative luminescence units (RLU) measured. Data were normalized to the DMSO controls. Curves were fitted using the Levenberg–Marquardt algorithm; TC50 was calculated as the compound concentration required to reduce cell viability by 50%.
(§2) We further evaluated cytotoxicity using the HepG2 cell line cultured with either glucose or galactose in the medium (Table 2). HepG2 cells cultured with galactose rely on mitochondrial oxidative phosphorylation rather than glycolysis which increases their susceptibility to mitochondrial toxicants allowing us to identify compounds with mitochondrial toxicity ([Kamalian et al., 2015]).

[3] = test system: M. tuberculosis; assay: Minimum inhibitory concentration in liquid medium (axenic culture); type: cell-based, Mycobacterium tuberculosis; settings: Mycobacterium tuberculosis; for IC50: read-out: Anti-tubercular activity in axenic culture IC50
[4] = test system: RAW264.7 cells; assay: Macrophage viability in the same high content assay; settings: for Intracellular RAW TC50 / Intracellular activity Cytotoxicity TC50: infected RAW264.7 macrophages; for Intracellular RAW TC50: SAR tables 4-8; for Intracellular activity Cytotoxicity TC50: 72 h; for selectivity index (SI): HepG2 cells and/or macrophages, cell line not specified
[5] = test system: HepG2 cells; assay: HepG2 cytotoxicity (CellTiter-Glo, 72 h); type: cell-based, human; settings: for HepG2 cytotoxicity TC50 Galactose / HepG2 cytotoxicity TC50 Glucose: human, 72 h; for selectivity (SI) for HepG2: HepG2 cytotoxicity / intracellular IC50
Description: as §1, §2

[6] = Mycobacterium tuberculosis, RAW264.7, in RAW264.7 macrophages, SAR tables 4-8, read-out: Intracellular Mtb IC50
[7] = HepG2 cytotoxicity IC50 Galactose
[8] = HepG2 cytotoxicity IC50 Glucose
[9] = axenic culture, SAR tables 4-8, read-out: Extracellular IC90
[10] = Mycobacterium tuberculosis, RAW264.7, 72 h, M. tuberculosis in RAW264.7 cells, MOI 1, 72 h, read-out: Intracellular activity Anti-tubercular activity IC50
[11] = 120 h, extracellular, 5 days, OD590
[12] = 120 h, extracellular, 5 days, OD590, read-out: Anti-tubercular activity in axenic culture IC90
[13] = Mycobacterium tuberculosis, RAW264.7, read-out: Intracellular Mtb IC50, in RAW264.7 macrophages, SAR tables 4-8
[14] = in RAW264.7 macrophages, SAR tables 4-8, read-out: Intracellular Mtb IC50

Row | Structure (SMILES) | activity against intracellular M. tuberculosis [1] | IC50 [1, 6] [µM] | IC50 at 72 h [2, 7] [µM] | IC50 at 72 h [2, 8] [µM] | IC90 [3, 9] [µM] | Intracellular RAW TC50 [4] | IC50 [1, 10] [µM] | HepG2 cytotoxicity TC50 Galactose [5] | HepG2 cytotoxicity TC50 Glucose [5] | IC50 [3, 11] [µM] | IC90 [3, 12] [µM] | Intracellular activity Cytotoxicity TC50 [4] | Intracellular RAW TC50 ([4]; listed as 17) [µM] | IC50 [1, 13] [µM] | selectivity index (TC50/IC50) ([4]; macrophage TC50 / intracellular IC50) | IC50 ([1]; in RAW264.7 macrophages, SAR tables 4-8, listed as 26, read-out: Intracellular Mtb IC50) [µM] | IC50 [1, 14] [µM] | selectivity (SI) for HepG2 [5] | selectivity index (SI) [4]
1 | Nc1c(C(=O)c2ccc(F)cc2)sc2nc(-c3ccccc3)cc(-c3ccccc3)c12 [TPN-0073026] | not active | > 100 | > 100 | > 100 | > 20 | >100 ^a µM | – | – | – | – | – | – | – | – | – | – | – | – | –
2 | CC(C)c1ccc(OCC(=O)Nc2nccs2)cc1 [TPN-0006217] | – | – | 64 ± 1.5 | 91 ± 3 | > 20 | – | 4.9 ± 2.1 | 64 ± 1.5 ^b µM | 91 ± 3 ^b µM | > 20 | > 20 | 75 ± 16 ^d µM | – | – | – | – | – | – | –
3 | O=C(Nc1ccc(C(F)(F)F)cc1)Nc1cccc(Cl)c1 [TPN-0073070] | – | 0.7 ± 0.2 | 5.5 | 5.6 | 15 | 1.8 ± 0.5 ^b µM | – | – | – | – | – | – | 1.8 | – | – | – | – | – | –
4 | OCc1cn(-c2ccc(Cl)cc2)nc1-c1ccc(Cl)cc1 [TPN-0073562] | – | 2.9 ± 0.5 | 31 ± 2.2 | 31 ± 2.1 | 19 ± 1.5 | 16 ± 11 ^c µM | 2.9 ± 0.52 | 31 ± 1.9 ^e µM | 31 ± 2.1 ^c µM | 12 ± 0.5 | 19 ± 1.5 | 16 ± 11 ^c µM | – | – | – | – | – | – | –
5 | CCOc1ccc(NC(=S)Nc2ccccc2)cc1 [TPN-0073062] | – | – | > 100 | > 100 | > 20 | >100 ^d µM | 0.39 ± 0.13 | >100 ^e µM | >100 ^e µM | 11 ± 5.3 | > 20 | >100 ^d µM | – | 0.4 ± 0.1 | > 250 | – | – | – | –
6 | CCCOc1ccc(C(=O)Nc2sc(C)c(C)c2C(N)=O)cc1 [TPN-0073576] | – | – | 89 ± 5.5 | 83 ± 2.9 | > 20 | >100 ^d µM | 1.1 ± 0.36 | 92 ± 7 ^c µM | 83 ± 2.9 ^c µM | > 20 | > 20 | >100 ^d µM | – | – | – | < 5 | 1 ± 0.4 | > 80 | > 10
7 | CCc1ccc(OCC(=O)Nc2cccc3c2C(=O)OC3)cc1 [TPN-0006204] | – | 10 ± 0.5 | 47 ± 17 | 59 ± 10 | > 20 | >100 ^a µM | 11 ± 0.5 | 47 ± 17 ^e µM | 59 ± 10 ^d µM | > 20 | > 20 | >100 ^b µM | – | – | – | – | – | – | –
8 | Nc1c(C(=O)N2CCCC2)sc2nc(-c3ccccc3)ccc12 [TPN-0073027] | – | < 10 | 64 ± 12 | 72 ± 22 | > 20 | >100 ^g µM | 5.8 ± 2.1 | 64 ± 10 ^e µM | 82 ± 25 ^d µM | > 20 | > 20 | >100e µM | – | – | – | – | 6.8 ± 3.3 | – | –
9 | O=C(COc1ccccc1)NC12CC3CC(CC(C3)C1)C2 [TPN-0006211] | – | 7.6 ± 3.5 | 43 ± 1 | 53 ± 1.5 | > 20 | 38 ± 6.0 ^b µM | 7.6 ± 3.5 | 43 ± 1 ^b µM | 53 ± 1.5 ^b µM | > 20 | > 20 | 38 ± 6.0 ^b µM | – | – | – | – | – | – | –
10 | COCc1cc(C)nc2sc(C(=O)c3ccccc3)c(N)c12 [TPN-0073023] | – | 17 ± 6.5 | 49 | 68 ± 1 | > 20 | 67 ± 18 ^d µM | – | – | – | – | – | – | – | – | – | – | – | – | –
11 | CCN(CC)C(=O)c1sc2nc(-c3ccccc3)ccc2c1N [TPN-0073025] | weak activity | < 10 | 42 | 61 ± 48 | > 20 | 30 ± 6.6 ^f µM | – | – | – | – | – | – | – | – | – | – | 9 ± 6.6 | – | –
12 | O=C(CSc1ccccn1)Nc1ccc(F)c(F)c1 [TPN-0006203] | good intracellular activity | 7.8 ± 1.6 | > 100 | > 100 | > 20 | >100 ^b µM | – | – | – | – | – | – | – | – | – | – | – | – | –
13 | OCc1cn(-c2ccccc2)nc1-c1ccc(Br)cc1 [TPN-0073563] | – | 4.3 ± 1.5 | 35 ± 3.7 | 34 | – | 28 ± 7.0 ^e µM | 4.7 ± 1.1 | 34 ± 1.9 ^c µM | 34 ± 0 ^c µM | – | – | 28 ± 7.0 ^e µM | – | – | – | – | – | – | –
14 | COCc1cc(C)nc2sc(C(=O)Nc3cccc(Cl)c3)c(N)c12 [TPN-0073022] | not active | > 100 | 64 | 51 | > 20 | 15 ± 9 ^b µM | – | – | – | – | – | – | – | – | – | – | – | – | –
15 | O=C(COc1ccc(Br)cc1)N1CCN(c2ccccc2F)CC1 [TPN-0006215] | – | 12 ± 1.6 | 57 ± 3 | 96 ± 2.5 | > 20 | 60 ± 27 ^b µM | – | – | – | – | – | – | – | – | – | – | – | – | –
16 | COC(=O)c1c(NC(NC(=O)c2cccs2)C(=O)c2ccccc2)sc(C(C)=O)c1C (centres unmarked) [TPN-0073588] | – | 6.5 ± 1.7 | > 100 | 93 ± 5.5 | > 20 | 67 ± 8.5 ^b µM | 6.5 ± 1.7 | >100 ^c µM | >100 ^b µM | > 20 | > 20 | 67 ± 8.5 ^b µM | – | – | – | – | – | 15 | > 10
17 | Nc1c(C(=O)Nc2nccs2)sc2nc3c(cc12)CCC3 [TPN-0073030] | – | – | > 100 | > 100 | > 20 | >100 ^c µM | – | – | – | – | – | – | – | 1.1 | – | – | – | – | –
18 | Nc1c(C(=O)N2CCCCC2)sc2nc3c(cc12)CCCC3 [TPN-0073024] | – | 62 ± 31 | > 100 | > 100 | > 20 | >100 ^b µM | – | – | – | – | – | – | – | – | – | – | – | – | –
19 | Cc1cc(OCC(=O)N2CCC(C)CC2)ccc1Br [TPN-0006213] | – | 6.6 ± 1.6 | 55 ± 5 | 93 ± 3.5 | > 20 | 75 ± 16 ^b µM | – | – | – | – | – | – | – | – | – | – | – | – | –
20 | O=C(COc1ccc(Cl)cc1)Nc1ccc(N2CCCCC2)c(Cl)c1 [TPN-0006209] | – | – | > 100 | > 100 | > 20 | 68 ± 0.5 ^b µM | – | >100 ^b µM | >100 ^b µM | > 20 | > 20 | 68 ± 0.50 ^b µM | – | – | – | – | – | – | –
21 | O=C(COc1ccc2ccccc2c1)Nc1ccncc1 [TPN-0006212] | – | 8.2 ± 1.7 | 61 ± 4 | > 100 | > 20 | >100 ^b µM | – | – | – | – | – | – | – | – | – | – | – | – | –
22 | OCc1cn(-c2ccc(F)cc2)nc1-c1ccc(Cl)cc1 [TPN-0073583] | – | 5.8 ± 0.4 | 57 ± 28 | 66 ± 29 | > 20 | >100 ^d µM | – | – | – | – | – | – | – | – | – | – | – | – | –
